Test results: patent US10105331B2, “Substituted aromatic compounds and pharmaceutical compositions for the prevention and treatment of diabetes” (PROMETIC PHARMA SMT LIMITED, priority 2014, dated 2018)
Where “and” joins values, the source holds several entries; their conditions need not be identical. Identical values can stand only once. Blank lines part the entries; values can stand above or below the molecule they belong to.

Tests used:
[1] = tested on: uninephrectomized db/db mice; assay: Blood triglycerides level in serum of uninephrectomized db/db mice; type: in vivo; conditions: 10 or 50 mg/kg
Protocol: (§1) Male Lepr db (db/db) and age- and sex-matched control mice with the same genetic background (C57BL/6) were used. Animals were randomized using blood sugar measurement (5-hours starved) at week 6 and uninephrectomy (removal of right kidney) was performed. Sham animals (C57BL/6) underwent exposition of the right kidney. Animals that underwent the sham operation were given vehicle (saline) and were used as negative controls. C57BL/6 mice that were uninephrectomized were given vehicle and were used as positive controls. Db/db mice were treated with oral administration of compound I at 10 and 50 mg/kg per day for 105 days. Serum glucose was measured every two to four weeks.
It is known that blood triglycerides is often associated with diabetes. High triglyceride levels in the blood tend to coexist with low levels of HDL (“good”) cholesterol, contributing to a condition called diabetic dyslipidemia. It is also known that a combination of high triglycerides, low HDL and central obesity are the hallmarks of the metabolic syndrome, which occurs in a majority people with type 2 diabetes.

[2] = tested on: uninephrectomized db/db mice; assay: Diabetic mouse (db/db) model, uninephrectomized: blood glucose, insulin, glucose/insulin ratio, islet insulin staining; type: in vivo; conditions: for blood glucose level: 105 days
Protocol: as §1

β-TC-6 cells = assay: Glucose-induced insulin secretion by β-TC-6 cells (insulin ELISA of supernatants); type: cell-based; conditions: for % Control (insulin secretion, individual values) / Average % Control (insulin secretion): β-TC-6 cells; for Insulin: glucose-induced insulin secretion by β-TC-6 cells, stimulation of 11 mM glucose, control 53
Protocol: β-TC-6 cells where used to determine if compounds according to the present invention were able to induce the production of insulin with or without stimulation with glucose. Briefly, β-TC-6 cells (200,000 cells/ml) were incubated in DMEM media and 15% heat inactivated serum in presence of absence of glucose (0.8M) with/without Compound I for 30 minutes and further incubated for 2 hours with a solution of Krebs containing 2.5, 11 and 25 mM glucose. Supernatants were collected and used for the detection of insulin (ELISA) performed as recommended by the supplier.

[3] = 50 mg/kg per day oral, NX db/db mice
[4] = uninephrectomized db/db mice, dose not stated in legend
[5] = glucose 11 mM, Compound I 40 μM
[6] = glucose 11 mM, Compound I 80 μM

melting point: 225 to 230 °C
Compound: CCCCCc1cc(CCCCC)cc(CC(=O)[O-])c1.[Na+] [Compound I, Sodium 2-[3,5-Dipentylphenyl]acetate]
blood triglyceride level in serum [1]: reduced the blood triglyceride level | blood glucose level ([2]; 10 mg/kg per day oral, compared to NX db/db): reduces blood glucose compare to NX db/db but stay stable over time | insulin level ([2]; 10 mg/kg per day oral, NX db/db mice): keeps a high insulin level (stabilization compare to Day 0) | blood glucose level [2, 3]: induces a significant decrease in blood glucose to a normal level | insulin level [2, 3]: reduces the insulin level close to a normal level | histoimmunostaining of insulin in the pancreatic islets ([2]; both concentrations (10 or 50 mg/kg), db/db Nx mice): reverses the loss of insulin detection | glucose/insulin ratio (insulin resistance) ([2]; day 33, uninephrectomized db/db mice): reduces the glucose/insulin ratio | glucose/insulin ratio (insulin resistance) ([2]; day 105, uninephrectomized db/db mice): reduces the glucose/insulin ratio | blood glucose level (FIG. 1 legend) [2, 4]: reduces blood glucose level down to normal level | insulin secretion (FIG. 2 legend) [2, 4]: reverses the fall of insulin secretion | % Control (insulin secretion, individual values) (β-TC-6 cells; [5]): 195.41 % Control and 187.16 % Control and 135.78 % Control and 149.35 % Control and 151.88 % Control and 143.13 % Control | Average % Control (insulin secretion) (β-TC-6 cells; [5]): 160.45 % Control | % Control (insulin secretion, individual values) (β-TC-6 cells; [6]): 192.66 % Control and 174.31 % Control and 203.67 % Control and 145.51 % Control and 129.29 % Control and 200.78 % Control | Average % Control (insulin secretion) (β-TC-6 cells; [6]): 174.37 % Control | Insulin (β-TC-6 cells): 76 ng/mL | % Control (insulin secretion, individual values) (β-TC-6 cells; no glucose, Compound I 40 μM): 53.76 % Control and 86.02 % Control and 47.31 % Control and 155.22 % Control and 135.63 % Control and 130.81 % Control | Average % Control (insulin secretion) (β-TC-6 cells; no glucose, Compound I 40 μM): 101.46 % Control | % Control (insulin secretion, individual values) (β-TC-6 cells; no glucose, Compound I 80 μM): 79.57 % Control and 38.71 % Control and 70.97 % Control and 123.28 % Control and 114.63 % Control and 177.33 % Control | Average % Control (insulin secretion) (β-TC-6 cells; no glucose, Compound I 80 μM): 100.75 % Control | glucose-induced insulin production in β-TC-6 cells (β-TC-6 cells; with or without glucose): increased with Compound I in presence of glucose only

Compound: CCCCCCc1cc(CCCCCC)cc(CC(=O)[O-])c1.[Na+] [Compound II, Sodium Salt of 2-(3,5-Dihexylphenyl)acetic acid]
Insulin (β-TC-6 cells): 123 ng/mL

Compound: CCCCCc1cc(CCCCC)c(O)c(CC(=O)[O-])c1.[Na+] [Compound III, Sodium Salt of 2-(2-Hydroxy-3,5-dipentylphenyl)acetic acid]
Insulin (β-TC-6 cells): 109 ng/mL

Compound: CCCCCCc1cc(CCCCCC)c(O)c(CC(=O)[O-])c1.[Na+] [Compound IV, Sodium Salt of 2-(3,5-Dihexyl-2-hydroxyphenyl)acetic acid]
Insulin (β-TC-6 cells): 147 ng/mL

Compound: CCCCCc1cc(CCCCC)c(Cc2ccccc2)c(CC(=O)[O-])c1.[Na+] [Compound IX, Sodium Salt of 2-(2-Benzyl-3,5-dipentylphenyl)acetic Acid]
Insulin (β-TC-6 cells): 110 ng/mL

Compound: CCCCCc1cc(CC(=O)[O-])cc(CCCCC)c1O.[Na+] [Compound V, Sodium Salt of 2-(4-Hydroxy-3,5-dipentylphenyl)acetic acid]
Insulin (β-TC-6 cells): 59 ng/mL

Compound: CCCCCCc1cc(CC(=O)[O-])cc(CCCCCC)c1O.[Na+] [Compound VI, Sodium Salt of 2-(3,5-Dihexyl-4-hydroxyphenyl)acetic acid]
Insulin (β-TC-6 cells): 67 ng/mL

Compound: CCCCCc1cc(CC(=O)[O-])cc(CCCCC)c1F.[Na+] [Compound VIII, Sodium Salt of 2-(4-Fluoro-3,5-dipentylphenyl)acetic acid]
Insulin (β-TC-6 cells): 64 ng/mL

Compound: CCC/C=C/c1cc(/C=C/CCC)cc(CC(=O)[O-])c1.[Na+] [Compound X, Sodium 2-[3,5-Di[(E)-Pent-1-enyl]phenyl]acetate]
Insulin (β-TC-6 cells): 102 ng/mL

Compound: CCCCCc1cc(CCCCC)cc(CCC(=O)[O-])c1.[Na+] [Compound XI, Sodium 3-[3,5-Dipentylphenyl]propanoate]
Insulin (β-TC-6 cells): 89 ng/mL

Compound: CCCC/C=C/c1cc(/C=C/CCCC)cc(CC(=O)[O-])c1.[Na+] [Compound XII, Sodium Salt of 2-(3,5-Di((E)-hex-1-enyl)phenyl)acetic acid]
Insulin (β-TC-6 cells): 70 ng/mL
